For 15 compounds, TGI and GI50 results are on record in PubChem BioAssay (NCI).

Test systems include SF-295 CNS; SK-MEL-2 melanoma; K-562 leukemia; HCT-116 colon; RXF 393 renal; OVCAR-5 ovarian; BT-549 breast; MDA-MB-435; UACC-257 melanoma; PC-3 prostate.
Common to all, as to assay: DTP human tumour cell line panel, 48 h

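Growth conditions: 96-well plates. Treatment: test compound, 48 hours, 5 concentrations. Analysis: linear interpolation between bracketing concentrations; unreached endpoints set to highest concentration. The concentration for 50% growth inhibition is given as GI50. TGI is the concentration that stops growth completely.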

On to `Cn1c(=O)n(CC2CS2)c2ccccc21` (stereo not drawn), for which the TGI with SF-295 CNS, with SK-MEL-2 melanoma, with K-562 leukemia, in the test on HCT-116 colon, in the test with RXF 393 renal and in the test on OVCAR-5 ovarian was above 100 µM each time.

`COc1cc2c(c(OC)c1)C(=O)O[C@H](C)CCCC/C=C/C2`: the concentration for total growth inhibition (TGI) (as a rule, the concentration giving total growth inhibition) with BT-549 breast was above 35.1 µM; in the test with SF-295 CNS, above 32.2 µM; with SK-MEL-2 melanoma, 31.1 µM; in the test with K-562 leukemia, above 100 µM; in the test on MDA-MB-435 it was 12.9 µM; with UACC-257 melanoma it was above 33.9 µM. The results for the total growth inhibition concentration (TGI) in the test with HCT-116 colon, in the test on RXF 393 renal and with OVCAR-5 ovarian were 38.2 µM, 25.2 µM and above 32.7 µM, respectively.

`C[C@]12CCC(=O)C=C1CC[C@@H]1[C@@H]2[C@@H](O)C[C@@]2(C)[C@H]1CC[C@]2(O)C(=O)COC(=O)CCC1CCCC1`: the concentration for total growth inhibition (TGI) in the test on SF-295 CNS, in the test with UACC-257 melanoma, with HCT-116 colon, in the test on RXF 393 renal and in the test on OVCAR-5 ovarian was above 100 µM each time.

In the case of `COc1cc2oc(=O)cc(C)c2c(OC)c1OC(C)=O`, the total growth inhibition concentration (TGI) with SF-295 CNS, in the test on SK-MEL-2 melanoma, with K-562 leukemia, with MDA-MB-435, in the test on PC-3 prostate and in the test with UACC-257 melanoma was above 100 µM each time. Also, the TGI with HCT-116 colon and in the test with OVCAR-5 ovarian was above 100 µM throughout.

`COc1cc(CNC(=S)CCCCCCCCCCC(C)C)ccc1O`: the TGI in the test with SF-295 CNS, with K-562 leukemia, in the test with MDA-MB-435, in the test with UACC-257 melanoma, in the test on HCT-116 colon and in the test with RXF 393 renal was above 100 µM in each case. Further, the TGI in the test on OVCAR-5 ovarian was above 100 µM.

`COc1ccc(OC)c(C[P+](c2ccccc2)(c2ccccc2)c2ccccc2)c1`: the total growth inhibition concentration (TGI) in the test on BT-549 breast is 29.1 µM; in the test with SF-295 CNS it was above 75.9 µM; in the test with K-562 leukemia it was 5.91 µM; with MDA-MB-435 it was 13.7 µM; in the test on PC-3 prostate, 8.56 µM; in the test on UACC-257 melanoma it was 14.4 µM. Moreover, the TGI was 14.4 µM in the test on HCT-116 colon, 25.8 µM in the test on RXF 393 renal and above 100 µM in the test with OVCAR-5 ovarian.

For the compound `CC(=O)NC(=O)NC1=NCCC(=O)N1CCc1c[nH]c2ccccc12`, the concentration for total growth inhibition (TGI) in the test with SF-295 CNS, with SK-MEL-2 melanoma, in the test with K-562 leukemia, with MDA-MB-435, in the test with PC-3 prostate and in the test with UACC-257 melanoma was above 100 µM each time. For the same compound, the TGI in the test with HCT-116 colon, in the test with RXF 393 renal and in the test on OVCAR-5 ovarian was above 100 µM in each case.

Consider `C[PH+](c1nc2ccccc2nc1[PH+](C)C(C)(C)C)C(C)(C)C.C[PH+](c1nc2ccccc2nc1[PH+](C)C(C)(C)C)C(C)(C)C.[Au+].[Cl-]` (stereo not drawn), for which the GI50 (usually the concentration giving 50% growth inhibition) was 0.0324 µM in the test with BT-549 breast; 0.0318 µM in the test with SK-MEL-2 melanoma; 0.0345 µM in the test with MDA-MB-435; 0.0286 µM in the test on PC-3 prostate; 0.0359 µM with UACC-257 melanoma; 0.0205 µM in the test on HCT-116 colon. In addition, the figures for the GI50 in the test on RXF 393 renal and in the test on OVCAR-5 ovarian were 0.103 µM and 0.0441 µM, respectively. For the same compound, the TGI in the test on BT-549 breast was 0.0961 µM; with SK-MEL-2 melanoma, 0.0986 µM; with MDA-MB-435, 0.158 µM; with PC-3 prostate it was 0.144 µM; in the test with UACC-257 melanoma it was 0.278 µM; with HCT-116 colon, 0.0613 µM. The TGI was 0.449 µM with RXF 393 renal and 0.457 µM in the test with OVCAR-5 ovarian.

As to `O=c1oc2cccnc2n1CCCCN1CCN(c2ccccc2)CC1`, the TGI in the test with SF-295 CNS, with SK-MEL-2 melanoma, with K-562 leukemia, in the test on MDA-MB-435, with PC-3 prostate and in the test with UACC-257 melanoma was above 100 µM in each case. In addition, the TGI with HCT-116 colon, with RXF 393 renal and with OVCAR-5 ovarian was above 100 µM in each case.

On to `CCOC(=O)c1c(N)sc2c1C(C(=O)OCC)CCC2` (stereo not drawn), for which the concentration for total growth inhibition (TGI) in the test with BT-549 breast, in the test with SK-MEL-2 melanoma, with K-562 leukemia, in the test on PC-3 prostate, with UACC-257 melanoma and with HCT-116 colon was above 100 µM throughout. Moreover, the TGI with RXF 393 renal and in the test on OVCAR-5 ovarian was above 100 µM throughout.

Turning to `Cc1nc(Nc2nc3ccccc3[nH]2)nc(Cl)c1CCCl`, the TGI with BT-549 breast, with SK-MEL-2 melanoma, in the test with K-562 leukemia, in the test on MDA-MB-435, in the test with PC-3 prostate and in the test with UACC-257 melanoma was above 100 µM throughout. This compound also yielded a total growth inhibition concentration (TGI) in the test with HCT-116 colon above 100 µM.

Consider `NNC(=O)Cn1ccnn1`, for which the TGI with BT-549 breast, in the test with SF-295 CNS, in the test with SK-MEL-2 melanoma, in the test on K-562 leukemia, in the test on MDA-MB-435 and with PC-3 prostate was above 100 µM throughout. In addition, the TGI with UACC-257 melanoma and in the test with OVCAR-5 ovarian was above 100 µM throughout.

With `O=C(O)COc1cc(-c2ccccc2)nc2ccccc12`, the TGI in the test on BT-549 breast was above 100 µM; in the test on SF-295 CNS it was above 100 µM; in the test with SK-MEL-2 melanoma it was above 100 µM; in the test on K-562 leukemia, above 100 µM; in the test with MDA-MB-435 it was 73.8 µM; in the test with PC-3 prostate it was above 100 µM. Further, the total growth inhibition concentration (TGI) with UACC-257 melanoma, with HCT-116 colon and in the test with OVCAR-5 ovarian was above 100 µM in each case.

For the compound `Cc1nc2cccc(F)c2c(=O)n1-c1nnc(C(F)(F)F)s1`, the TGI in the test with SF-295 CNS, with SK-MEL-2 melanoma, in the test with K-562 leukemia, in the test on MDA-MB-435, in the test with PC-3 prostate and with UACC-257 melanoma was above 10 µM each time. The total growth inhibition concentration (TGI) in the test on HCT-116 colon, in the test with RXF 393 renal and in the test on OVCAR-5 ovarian was above 10 µM each time.

With `COc1cc(S(=O)(=O)Nc2ccc(-c3csc(/N=C\c4ccccc4)n3)cc2)ccc1Cl`, the TGI in the test with BT-549 breast was above 100 µM; in the test with SF-295 CNS it was above 100 µM; in the test with SK-MEL-2 melanoma it was 60.6 µM; in the test with K-562 leukemia it was above 100 µM; in the test with MDA-MB-435 it was above 100 µM; in the test on PC-3 prostate it was above 100 µM. Moreover, the TGI in the test with HCT-116 colon, with RXF 393 renal and in the test on OVCAR-5 ovarian was above 100 µM throughout.
